This is an account of results in PMC11475664, “Alpha-glucosidase inhibitory compounds from Vietnamese lichen Usnea baileyi: in vitro and in silico aspects” (RSC Advances, 2024).

As a reminder, the IC50 is the point on the concentration scale where inhibition reaches its midpoint.

One assay relates to alpha-glucosidase. The settings on record: cited from earlier work.
The next assay has as its system HepG2 cells. As to the kind of experiment: Cytotoxicity assay (MTT, 72 h) on HepG2. Type of assay: cell-based. The settings on record: Homo sapiens; liver cancer cell line HepG2, MTT, 72 h, Table S2; read-out: HepG2 IC50. As to the method:
(§1) Table S2. Cytotoxicity of compounds 1-6, 11, 1a-1e, and 6a […]
(§2) The method used followed that reported by Nguyen et al. (2022). Briefly, HepG2 and Hek293 cells in a complete medium containing DMEM (HyClone, Cytiva, USA) and 10% fetal bovine serum (FBS) were seeded into a 96-well plate at 5 × 10^4 cells per well. The cells were then incubated at 37°C with 5% CO2. After culturing for 24 h, the old medium was replaced by diluted compounds (in DMSO), positive control Doxorubicin (DOX, Fesenius Kabi, Germany), and negative control dimethyl sulfoxide (DMSO, Sigma-Aldrich, Germany). After 72 h of treatment, MTT (3-(4,5-Dimethyl-2-thiazolyl)-2,5-diphenyl-2H-tetrazolium bromide) was added into each well of the test plate. The plate was incubated at 37°C with 5% CO2 for another 3 h. DMSO was used to dissolve the crystals from the interaction between MTT and viable cells. The absorbance of samples was read at 570 nm by the ELISA Reader (BioTek, USA). Cell death (% inhibition) was estimated by the following formula:
(§3) % Inhibition = 100 − [100 × (A Sample – A B1)/(ADMSO – A B2)]
(§4) Where, ASample: Absorbance of sample, ADMSO: Absorbance of negative control, AB1: Absorbance of blank of sample, AB2: Absorbance of blank of DMSO. The IC50 value and the inhibitory chart were respectively calculated and built using GraphPad Prism software (version 8.0.1, Insightful Science LLC, […]
(§5) Ref: Nguyen HH, Aree T, Nguyen HT, et al. Diorygmones A-B, two new guaiane-sesquiterpenes from the cultured lichen mycobiont of Diorygma sp. Natural Product Research. Published online February 1,

In the next assay the test system is Hek293 cells. The assay can be described thus: Cytotoxicity assay (MTT, 72 h) on Hek293. Type of assay: cell-based. As to conditions: Homo sapiens; normal cells Hek293, MTT, 72 h, Table S2; read-out: Hek293 IC50. As to the method: as §1, §2, §3, §4, §5
The target in a further assay is yeast alpha-glucosidase. As to the kind of experiment: Alpha-glucosidase inhibition assay. The settings on record: yeast alpha-glucosidase. The format is biochemical. An excerpt: Evaluation of the inhibitory activity of compounds against yeast alpha-glucosidase followed a previous procedure.[30]
Setting [1] is: read-out: IC50, alpha-glucosidase inhibition of related synthetic analogs (Fig. 8).
Setting [2] is: read-out: IC50, alpha-glucosidase inhibition, previously reported.
The mark [3] stands for this setting: read-out: IC50, alpha-glucosidase inhibition of natural analogs of 1e (Fig. 9).

Converted amounts (≈) assume the structure as drawn. Like-named read-outs stand apart in the source and are kept apart here.

For `Cc1cc(O)c(/C=N/Nc2ccc(Br)cc2)c2c1C(=O)Oc1c(CO)c(O)c3c(c1O2)C(O)OC3=O` (stereo not shown) [I, (E)-11-((2-(4-bromophenyl)hydrazineylidene)methyl)-1,4,10-trihydroxy-5-(hydroxymethyl)-8-methyl-7H-benzo[6,7][1,4]dioxepino[2,3-e]isobenzofuran-3,7(1H)-dione], the “inhibition type, previously reported” value in the assay with alpha-glucosidase is “non-competitive inhibitors”. For the same compound, the IC50 on alpha-glucosidase (setting [1]) is 11.3 µM.
With `COc1cc(C)c2c(c1C=O)Oc1c(C=O)c(C(=O)O)c(O)c(C)c1OC2=O` [Compound 4, 4,6-diformyl-8-hydroxy-3-methoxy-1,9-dimethyl-11-oxo-11H-dibenzo[b,e][1,4]dioxepine-7-carboxylic acid], the IC50 was more than 100 mg/L in the assay with HepG2 cells, more than 100 mg/L in the assay with Hek293 cells and more than 200 µM against yeast alpha-glucosidase.
On to `Cc1cc(O)c(/C=N/Nc2ccc(Cl)cc2)c2c1C(=O)Oc1c(CO)c(O)c3c(c1O2)C(O)OC3=O` (stereo not shown) [II], for which the IC50 at alpha-glucosidase (setting [1]) is 19.4 µM.
As for `Cc1c(O)c2c(c3c1OC(=O)c1c(C)c(Br)c(O)c(C=O)c1O3)C(O)OC2=O` (stereo not shown) [Compound 6a, 9-bromo-1,4,10-trihydroxy-5,8-dimethyl-3,7-dioxo-3,7-dihydro-1H-benzo[6,7][1,4]-dioxepino[2,3-e]isobenzofuran-11-carbaldehyde], the half-inhibitory concentration (IC50) with HepG2 cells was more than 100 mg/L; with Hek293 cells, 88.2 ± 2.02 mg/L (≈ 195 µM); at yeast alpha-glucosidase it was 102 ± 1.8 µM.
Taken in the same sequence, the figures for `Cc1c(Br)c(O)c(Br)c2c1Oc1c(Br)c(O)c(Br)c(C)c1C(=O)O2` [Compound 1c, 2,4,7,9-tetrabromo-3,8-dihydroxy-1,6-dimethyl-11H-dibenzo[b,e][1,4]dioxepin-11-one] were 76.5 ± 1.07 mg/L (≈ 130 µM), 58.9 ± 2.84 mg/L (≈ 100 µM) and 80.7 ± 1.8 µM.
`Cc1cc(O)c(C=O)c2c1C(=O)Oc1c(CO)c(O)c(C(=O)O)c(C)c1O2` [Compound 1, protocetraric acid]: the half-maximal inhibitory concentration (IC50) in the assay on HepG2 cells was 63.6 ± 0.06 mg/L (≈ 170 µM); in the assay on Hek293 cells, 35.7 ± 2.4 mg/L (≈ 95.5 µM); at alpha-glucosidase (setting [2]), 81.6 µM; against yeast alpha-glucosidase, 70.6 ± 1.2 µM.
For `COc1c(C)c2c(c(C)c1Cl)Oc1c(C)c(O)c(Cl)c(C)c1C(=O)O2` [Compound 5, vicanicin], the results for the IC50 in the assay with HepG2 cells, with Hek293 cells and against yeast alpha-glucosidase were more than 100 mg/L, more than 100 mg/L and more than 200 µM, respectively.
With `Cc1cc(OC(=O)c2c(O)cc(O)c(Cc3c(O)c(C(=O)O)c(C)c4c3Oc3c(C=O)c(O)cc(C)c3C(=O)O4)c2C)cc(O)c1C(=O)O` [Cristifone A], at alpha-glucosidase (setting [3]), the concentration for half-maximal inhibition (IC50) is 21.5 µM.
As for `Cc1cc(O)c(/C=N/Nc2ccccc2)c2c1C(=O)Oc1c(CO)c(O)c(C(=O)O)c(C)c1O2` [Compound 1a, (E)-3,8-dihydroxy-9-(hydroxymethyl)-1,6-dimethyl-11-oxo-4-((2-phenylhydrazono-)methyl)-11H-dibenzo[b,e][1,4]dioxepine-7-carboxylic acid], the results for the half-inhibitory concentration (IC50) in the assay with HepG2 cells, in the assay with Hek293 cells and against yeast alpha-glucosidase were more than 100 mg/L, more than 100 mg/L and 25.9 ± 2.2 µM, respectively.
Consider `Cc1cc(O)c(C=O)c(O)c1Cc1c(O)c(C(=O)O)c(C)c2c1Oc1c(C=O)c(O)cc(C)c1C(=O)O2` [Cristifone B], for which the “inhibition type, previously reported” value in the assay on alpha-glucosidase is given as “non-competitive inhibitors”. Moreover, the IC50 at alpha-glucosidase (setting [3]) was 18.4 µM.
In the case of `Cc1cc(O)cc(O)c1Cc1c(O)c(C(=O)O)c(C)c2c1Oc1c(C=O)c(O)cc(C)c1C(=O)O2` [Parmosidone K], on alpha-glucosidase (setting [3]), the 50% inhibitory concentration (IC50) is 6.1 µM.
Consider `Cc1c(Br)c(O)c(Br)c2c1C(=O)Oc1c(CO)c(O)c3c(c1O2)C(O)OC3=O` (stereo not shown) [IV], for which the IC50 at alpha-glucosidase (setting [1]) was 15.6 µM.
As for `CC(=O)C=Cc1c(O)cc(C)c2c1Oc1c(c(Cc3c(C)cc(O)cc3O)c(O)c3c1C(O)OC3=O)OC2=O` (stereo not shown) [Parmosidone G], the concentration for half-maximal inhibition (IC50) at alpha-glucosidase (setting [3]) is 4.3 µM.
In the case of `COc1cc(C)c2c(c1C=O)Oc1c(c(C)c(O)c3c1C(O)OC3=O)OC2=O` (stereo not shown) [Compound 3, stictic acid], the values for the IC50 in the assay on HepG2 cells, in the assay with Hek293 cells and against yeast alpha-glucosidase were more than 100 mg/L, 33.9 ± 1.6 mg/L (≈ 87.8 µM) and 30.4 ± 1.4 µM, respectively.
As to `COC(=O)c1c(C)c(Cc2c(O)cc(C)c3c2Oc2c(C=CC(C)=O)c(O)cc(C)c2C(=O)O3)c(O)c(C)c1O` [Parmosidone H], the concentration for half-maximal inhibition (IC50) on alpha-glucosidase (setting [3]) was 17.6 µM.
With `Cc1cc(O)c(/C=N/Nc2ccc(Br)cc2)c2c1C(=O)Oc1c(CO)c(O)c(C(=O)O)c(C)c1O2` [Compound 1b, (E)-4-((2-(4-bromophenyl)hydrazono)methyl)-3,8-dihydroxy-9-(hydroxymethyl)-1,6-dimethyl-11-oxo-11H-dibenzo[b,e][1,4]dioxepine-7-carboxylic acid], the IC50 in the assay with HepG2 cells was more than 100 mg/L; with Hek293 cells, more than 100 mg/L; against yeast alpha-glucosidase, 20.7 ± 1.1 µM.
Regarding `Cc1cc(OC(=O)c2c(C)cc(O)cc2O)cc(O)c1Cc1c(O)c(C(=O)O)c(C)c2c1Oc1c(C=O)c(O)cc(C)c1C(=O)O2` [Parmoferone A], the IC50 on alpha-glucosidase (setting [3]) is 18.1 µM.
`Cc1cc(O)c(C=O)c2c1C(=O)Oc1c(C)c(O)c3c(c1O2)C(O)OC3=O` (stereo not shown) [Compound 6, norstictic acid]: the IC50 in the assay with HepG2 cells is more than 100 mg/L; in the assay on Hek293 cells, more than 100 mg/L; at yeast alpha-glucosidase it was 50.7 ± 2.7 µM.
`COc1cc(C)c(C(=O)Oc2cc(C)c(C(=O)O)c(O)c2C)c(O)c1C` [Compound 8, barbatic acid] displayed an IC50 on yeast alpha-glucosidase of more than 200 µM.
Turning to `Cc1cc(O)cc(O)c1Cc1c(O)c2c(c3c1OC(=O)c1c(C)cc(O)c(C=O)c1O3)C(O)OC2=O` (stereo not shown) [Parmosidone F], the “inhibition type, previously reported” value with alpha-glucosidase is listed as “mixed-mode inhibitor”. The IC50 at alpha-glucosidase (setting [3]) was 2.2 µM.
For `Cc1cc(O)c(C=O)c(O)c1` [Compound 9, atranol], the figures for the IC50 at alpha-glucosidase (setting [2]) and at yeast alpha-glucosidase were 559 µM and more than 200 µM, respectively.
As for `CC(=O)OCc1c(O)c(Br)c(C)c2c1OC(=O)c1c(C)c(Br)c(O)c(Br)c1O2` [Compound 1d, (2,4,7-tribromo-3,8-dihydroxy-1,6-dimethyl-11-oxo-11H-dibenzo[b,e][1,4]dioxep-in-9-yl)methyl acetate], the values for the concentration for half-maximal inhibition (IC50) in the assay on HepG2 cells, with Hek293 cells and against yeast alpha-glucosidase were 86.7 ± 0.68 mg/L, 61.1 ± 2.71 mg/L and 91.8 ± 1.5 µM, respectively.
`Cc1c(Br)c(O)c(C=O)c2c1C(=O)Oc1c(Br)c(O)c3c(c1O2)C(O)OC3=O` (stereo not shown) [V]: on alpha-glucosidase (setting [1]), the half-maximal inhibitory concentration (IC50) was 14.3 µM.
With `COC(=O)c1c(C)c(Cc2c(O)c(C(=O)O)c(C)c3c2Oc2c(C=O)c(O)cc(C)c2C(=O)O3)c(O)c(C=O)c1O` [Parmosidone J], the IC50 at alpha-glucosidase (setting [3]) is 10.7 µM.
Turning to `COc1cccc2c1C(=O)c1c(O)c3c(c(O)c1C2=O)C[C@@](O)(C(=O)CO)C[C@@H]3O[C@H]1C[C@H](N)[C@H](O)[C@H](C)O1` [Doxorubicin, reference compound], the values for the half-maximal inhibitory concentration (IC50) in the assay on HepG2 cells and in the assay on Hek293 cells were 1.89 ± 0.03 mg/L (≈ 3.48 µM) and 2.13 ± 0.01 mg/L (≈ 3.92 µM), respectively.
Turning to `COc1cc(C)c(C(=O)Oc2cc(C)c(C(=O)O)c(O)c2C)c(OC)c1C` [Compound 7, diffractaic acid], the values for the IC50 on alpha-glucosidase (setting [2]) and against yeast alpha-glucosidase were 420 µM and more than 200 µM, respectively.
Turning to `COc1cc(C)c2c(c1C=O)Oc1c(c(C)c(O)c3c1C(OC)OC3=O)OC2=O` (stereo not shown) [Compound 2, 8′-methylstictic acid], the IC50 in the assay with HepG2 cells was more than 100 mg/L; in the assay with Hek293 cells, more than 100 mg/L; on yeast alpha-glucosidase it was 41.8 ± 1.5 µM.
For the compound `Cc1c(Br)c(O)c(Br)c2c1C(=O)Oc1c(CO)c(O)c(Br)c(C=O)c1O2` [III], on alpha-glucosidase (setting [1]), the half-inhibitory concentration (IC50) is 16.4 µM.
For `Cc1c(Cl)c(O)c(C=O)c(O)c1C(=O)O` [Compound 10, 5-chlorohaematommic acid], on yeast alpha-glucosidase, the concentration for half-maximal inhibition (IC50) was more than 200 µM.
